Test results as given in EP2283839A1, “Polyunsaturated hydroxylated molecule having an eze geometry and its use in therapy” (Institut National des Sciences Appliquées de Lyon, priority 2009, dated 2011).
Marks after values point to notes of the source that are not given here.

test system: platelets isolated from human blood; assay: Measurement of platelet aggregation (turbidimetric method, aggregometer); format: cell-based; settings: 1 µM triene molecules; Collagen-induced platelet aggregation; measured after 4 min
Procedure: Aggregation tests were performed on platelets isolated from human blood in presence or not of different dihydroxylated triene compounds with different double bond geometry: ZEE, EZE or ZZZ. Platelet aggregation was determined by a standard turbidimetric method using a dual aggregometer (CHRONO-LOG, USA). The levels of light transmission were calibrated as 0 % for a platelet suspension and 100% for the Tyrode/HEPES solution (pH 7.35). 400 µl of platelet suspension in a vial was preincubated for 1 min at 37 °C under a continuous stirring condition, 1 µl of sample in ethanol was added for incubation, the activators (collagen, arachidonic acid, or U46619) were added after 2 min of incubation and the extent of platelet aggregation was measured after 4 min running. Other compounds were prepared using the same procedure or by conversion of PDX and compared to similar compounds of different configurations ZEE or EEE. Table I: Effects of 1 µM triene molecules on Collagen-induced platelet aggregation

Q: How did the “% inhibition” value turn out when `CCCCC/C=C\C[C@H](O)/C=C/C=C\C=C\[C@@H](O)CCCC(=O)O` [5(S),12(S)-diHETE, 5(S),12(S)-dihydroxy-eicosa-6E,8Z,10E,14Z tetraenoic acid] was run?
A: 74.9** %

Q: Which “% inhibition” value does the source give for `CCCCC/C=C\C[C@@H](O)/C=C/C=C/C=C/[C@@H](O)CCCC(=O)O` [6-trans LTB4, 5(S),12(R)-dihydroxy-eicosa-6E,8E,10E,14Z-tetraenoic acid] here?
A: 8.1%

Q: With `CCCCC/C=C\C[C@H](O)/C=C/C=C/C=C/[C@@H](O)CCCC(=O)O` [6trans-12-epi LTB4, 5(S),12(S)-dihydroxy-eicosa-6E,8E,10E,14Z-tetraenoic acid] as the compound, how does the “% inhibition” value read?
A: 1.8%

Q: For `CCCCC[C@H](O)/C=C/C=C\C=C\[C@@H](O)C/C=C\CCCC(=O)O` [8(S),15(S)-diHETE, 8(S),15(S)-dihydroxy-eicosa-5Z,9E,11Z,13E -tetraenoic acid], which “% inhibition” value is on record?
A: 66.5** %

Q: Which “% inhibition” value does the source give for `CC/C=C\C[C@H](O)/C=C/C=C\C=C\[C@H](O)C/C=C\C/C=C\CCC(=O)O` [10(R),17(S)-diOH-22:6, 10(R),17(S)-dihydroxy-docosa-4Z,7Z,11E,13Z,15E,17Z-hexaenoic acid] here?
A: 70.0** %

Q: For `CCCCCCCC[C@H](O)/C=C/C=C/C=C\[C@@H](O)CCCC(=O)O` [12-epi LTB3, 5(S),12(S)-dihydroxy-eicosa-6Z,8E,10E,-trienoic acid], which “% inhibition” value is on record?
A: 7.4%

Q: For `CCCCC/C=C\C[C@H](O)/C=C/C=C/C=C\[C@@H](O)CCCC(=O)O` [12-epi LTB4, 5(S),12(S)-dihydroxy-eicosa-6Z,8E,10E,14Z-tetraenoic acid], which “% inhibition” value is on record?
A: 3.9%

Q: Which “% inhibition” value does the source give for `CCCCCCCC[C@@H](O)/C=C/C=C/C=C\[C@@H](O)CCCC(=O)O` [LTB3, 5(S),12(R)-dihydroxy-eicosa-6Z,8E,10E,-trienoic acid] here?
A: 5.0%

Q: With `CCCCC/C=C\C[C@@H](O)/C=C/C=C/C=C\[C@@H](O)CCCC(=O)O` [LTB4, 5(S),12(R)-dihydroxy-eicosa-6Z,8E,10E,14Z-tetraenoic acid] as the compound, how does the “% inhibition” value read?
A: 3.4%

Q: `CC/C=C\C[C@H](O)/C=C/C=C\C=C\[C@@H](O)C/C=C\C/C=C\CCC(=O)O` [PDX, 10S,17S-dihydroxy-docosa-4Z,7Z,11E,13Z,15E,19Z-hexaenoic acid] was tested. Which “% inhibition” value did it give?
A: 56.1** %

Q: With `CCCCC[C@H](O)/C=C/C=C\C=C\[C@@H](O)CCCCCCCCC(=O)O` [diOH-22:3, 10(S),17(S)-dihydroxy-docosa-11E,13Z,15E,-trienoic acid] as the compound, how does the “% inhibition” value read?
A: 63.8** %
